In paper PMC11451635, “A Broad Spectrum Lasso Peptide Antibiotic Targeting the Bacterial Ribosome” (Research Square, 2024):
Values after ≈ are worked out from the molar mass of the structure shown. “Also recorded” adds a separate entry of the source. Where a SMILES comes first, the peptide text is derived from it. Bridges are numbered along the chain shown (N, C = ends).

Legend:
[1] = system: strains with deletions of the individual identified genes; assay: MIC in deletion strains of identified ETC/respiration genes; type: cell-based; details: deletions of genes related to ETC and respiration
Procedure: (§1) MICs were determined using broth microdilution method in cation-adjusted Mueller-Hinton Broth (MHBII, BD Difco) following standard procedures unless stated otherwise. Mycobacteria susceptibility was tested in Middlebrook 7H9 medium supplemented with 10% OADC Enrichment (oleic acid, bovine albumin, dextrose, and catalase) (BD Difco). The compounds (2 to 4 μl) were mixed with diluted cultures (5–7 × 10^5 cfu/mL) in MHB (196 to 198 μL) in 96-well round-bottom plates, and 2-fold serial dilutions were made. Plates were incubated at 37°C for 18–22 h, and OD600 readings were taken on Synergy Microplate Reader (Biotek). MIC was determined to be the lowest concentration of antibiotics with no visible growth. For Mycobacterial cultures, the plates were read after two to three days. Susceptibility was also assessed in MOPS minimal medium with 0.4% glucose (M2106 Teknova) and RPMI-1640 medium. Serum effects were tested in MHB with 10% or 50% fetal bovine serum (Invitrogen) or human serum (Heat Inactivated, from human male AB plasma; Sigma-Aldrich). For anaerobic conditions, E. coli was incubated in BD GasPak™ EZ pouch systems. To adjust the pH of the media, 1M NaOH or 1N HCl was used.

[2] = system: E. coli BW25113 ΔtolCΔbamB expressing various resistance genes; assay: Cross-resistance with resistance mechanisms; details: mutations or enzymatic resistance mechanisms; Extended Data Fig. 10
[3] = system: Candida albicans ATCC 90028
E. coli BW25113 [4] = assay: Time-dependent killing; type: cell-based, Escherichia coli; details: 10xMIC (40 μg/ml), MOPS minimal medium, 37°C
Procedure: (§2) E. coli BW25113 was grown overnight in 5 ml MOPS minimal medium and diluted 1:100 in 3 ml of fresh medium in 14 ml culture tubes. Cells were grown for three to four hours to reach mid-exponential phase (OD600 0.4–0.6) and treated with 10xMIC of LAR (40 μg/ml) or colistin (2.5 to 5 μg/ml) in 1 ml culture at 37°C with agitation at 250 rpm. Cultures were sampled at various times, centrifuged at 10,000 xg for 3 min, and plated on MHA plates. The number of colony forming units (cfu) was determined after incubating plates for 20–24 hr at 37°C. A time-kill assay against A. baumannii C0286 was performed in MHB. For cell lysis assay, cultures were prepared as described above. Initial OD600 was adjusted to 0.15–0.2, and 98 μl of culture was added to a 96-well plate containing 2 μl of compound. The plates were incubated with orbital shaking at maximum speed with a Synergy Microplate Reader (Biotek), and OD600 was measured over 6 h. Experiments were performed in two to three biological replicates. For colistin in cell lysis assay, clumping of cells was observed after ≈2h, leading to a false increase in OD; therefore, data for colistin was not plotted after this period. The plate was manually mixed on a vortex, and the turbidity of colistin-treated wells was confirmed.

E. coli BW25113 [5] = assay: Cell lysis assay (optical density); type: cell-based, Escherichia coli; details: exponential E. coli culture, OD600 over 6 h
Procedure: as §2

[6] = system: strains with odilorhabdin-resistance mutations; assay: MIC in odilorhabdin-resistance mutants; type: cell-based; details: three of 10 known odilorhabdin-resistance mutations
Procedure: as §1

Bacillus subtilis 168 = type: cell-based
human erythrocytes = assay: Haemolysis
E. coli BW25113 membrane = assay: Membrane depolarization assay; type: cell-based, Escherichia coli; details: DiOC2(3) 30 μM, 60 min, room temperature, fluorescence
Procedure: Mid-exponential phase E. coli BW25113 culture (OD600 0.3–0.5) was mixed with […] (DiOC2(3), ThermoFisher Scienti c) dye at a nal concentration of 30 μM and 190 μL of cells were placed into wells of a 96-well black plate. A volume of 10 μl of test compounds or DMSO was added, mixed by pipetting, and fluorescence was measured for 60 min at room temperature using a Synergy Microplate Reader (Biotek) (lex/lem: 450/670 nm). Carbonyl cyanide m-chlorophenyl hydrazone (CCCP) served as a positive control.

[7] = system: ribosomes (E. coli PURExpress); assay: Toeprinting assay; type: biochemical, Escherichia coli; details: 1, 5 or 10 μM LAR, RST1 template
Procedure: Toe-printing analysis was carried out in the E. coli in vitro transcription-translation system assembled from the purified components (PURExpress, NEB) as described previously. Reactions either contained no antibiotic or were supplemented with 50 μM retapamulin or varying concentrations of LAR (1, 5, or 10 μM). The model RST1 template encoding a 21-aa long peptide containing all 20 proteinogenic amino acids[22] was generated by PCR using the primers RST1_F and FIRST1_R (Supplementary Table 1).

[8] = system: Bacteroides fragilis GC73; assay: MIC, gut bacteria; type: cell-based; details: column MHB; method: BHI + L-cysteine, hemin, vitamin K, anaerobic, 37 °C
Procedure: as §1
(§3) For MIC testing using human microbiota strains, the cultures were grown in BHI supplemented with L-cysteine (0.5g/L), Hemin (10mg/L), and Vitamin K (1mg/L) in anaerobic chambers (37 °C, 5% H2, 10% CO2, 85% N2). […]

[9] = system: Lactobacillus plantarum GC4; assay: MIC, gut bacteria; type: cell-based; details: column MHB; method: BHI + L-cysteine, hemin, vitamin K, anaerobic, 37 °C
Procedure: as §1, §3

CC(C)[C@H](NC(=O)CNC(=O)[C@H](CCCNC(=N)N)NC(=O)CNC(=O)[C@H](Cc1ccccc1)NC(=O)[C@H](CCCCN)NC(=O)CNC(=O)[C@@H]1CC(=O)N[C@@H](CO)C(=O)N[C@@H](CCCCN)C(=O)N[C@@H](CCCCN)C(=O)N[C@@H](CO)C(=O)N[C@@H](CCCCN)C(=O)N2CCC[C@H]2C(=O)NCC(=O)N1)C(=O)N[C@@H](CCCCN)C(=O)N[C@@H](CCCNC(=N)N)C(=O)NCC(=O)O [LAR, lariocidin] (SKKSKPGDGKFGRGVKRG-OH; lactam N-8)
Change in MIC in deletion strains [1]: no significant changes in MIC
Sensitivity to resistance mechanisms [2]: unaffected by common resistance mechanisms; also recorded: mostly insensitive to mutations or enzymatic resistance mechanisms
Antifungal action [3]: no antifungal action
MIC ([3]; column MHB, method: yeast nitrogen base (YNB) without amino acids): >256 µg/mL
Viable cell count / bactericidal activity (E. coli BW25113 [4]): dramatically reduced the viable cell count; also recorded: exhibits bactericidal activity
Effect on culture optical density (lysis) (E. coli BW25113 [5]): did not cause a decrease in the optical density of the culture below the initial point
Increase in LAR MIC by odilorhabdin-resistance mutations [6]: 2–4 x
MIC (text) (Bacillus subtilis 168): 1 µg/mL (≈ 0.534 µM)
Hemolytic activity (human erythrocytes): did not display hemolytic activity
Haemolysis (human erythrocytes; 500 μg/ml, human erythrocytes in PBS pH 7.4, 1 h, 37°C, 540 nm, Triton X-100 = 100%): <1%
Membrane depolarization (E. coli BW25113 membrane): did not permeabilize or depolarize the bacterial membrane
Ribosome stalling (toeprint) [7]: predominantly arrested at the start codon of a model mRNA but also stalled at internal codons of the ORF
MIC [8]: >256 µg/mL
MIC [9]: >256 µg/mL
